Measurements: USRE32992E, “Peptide process for preparation thereof and use thereof” (priority 1978, dated 1989)

Test system: reticuloendotherial system
Assay: Blood stream clearance of carbon
Assay type: in vivo, Mice (DDY male 5-6 W)
Protocol: 1. Carbon suspension. Rotoring drawing ink (170 mg carbon/ml.) was diluted to 1/5 of the original concentration in saline containing 1% gelatin.
2. 0.1% aqueous sodium carbonate solution.
Mice (DDY male 5-6 W) were injected via the tail vein with a dose of 0.01 ml/g body weight of carbon. Blood samples were taken by means of a pointed capillary pippet calibrated to hold a 50 μl and previously washed in heparin. This was plunged into the retrooribital venous sinus at the nasal angle of the eye. The samples were removed at 3 and to 6 min.
The blood was immediately discharged into 3.0 ml. of the sodium carbonate solution. This hemolyszed the blood and allowed the quantitation of carbon. The samples were then read in a spectrophotometer at 660 nm, the log concentration being obtained from a previously determined standard curve. The clearance value K may be determined by plotting log carbon concentration against time according to the following relationship; [formula] in which T1 and T2 represent the time in min when the sample were withdrawn and C1 and C2 represent the concentrations of carbon in the blood at the time T1 and T2, respectively.
The aqueous solution of the test compound as given was administered subcutaneously to mice. Twenty four hours later, blood stream clearance of carbon was measured. K value obtained with treated mice was compared with that of control mice.

| Compound | Ktreated/Kcontrol (dose 125 mg/mouse) | Ktreated/Kcontrol (dose 400 mg/mouse) | Ktreated/Kcontrol (dose 10 mg/mouse) |
| --- | --- | --- | --- |
| Tuftsin | 1.0 | 1.4 | – |
| c1ccc([C@H]2CN3CCSC3=N2)cc1 [Levamisol] | – | – | death |
